# Molecular target: Isocitrate dehydrogenase [NADP] cytoplasmic (Homo sapiens, UniProt O75874, R132H)
# Assay: Inhibition of IDH1 R132H mutant (unknown origin) assessed as reduction in NADPH consumption using alpha-KG as substrate incubated for 5 mins followed by substrate addition and measured every 1 min
# Isocitrate dehydrogenase [NADP] cytoplasmic, sequence (O75874 2-414 R132H limits assumed): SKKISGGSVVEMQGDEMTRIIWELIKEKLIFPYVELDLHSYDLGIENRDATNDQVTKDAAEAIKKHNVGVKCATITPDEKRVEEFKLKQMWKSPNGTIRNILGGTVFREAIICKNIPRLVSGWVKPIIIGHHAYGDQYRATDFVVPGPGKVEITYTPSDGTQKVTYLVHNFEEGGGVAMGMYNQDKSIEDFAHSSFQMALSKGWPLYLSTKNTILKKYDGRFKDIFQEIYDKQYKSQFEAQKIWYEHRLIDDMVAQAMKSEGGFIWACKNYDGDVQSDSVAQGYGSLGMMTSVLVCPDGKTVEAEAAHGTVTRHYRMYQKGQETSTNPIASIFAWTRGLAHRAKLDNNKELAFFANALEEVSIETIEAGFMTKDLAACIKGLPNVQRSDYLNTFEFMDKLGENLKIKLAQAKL
row,SMILES,IC50 [µM]
1,CC1=C[C@@H]2/C=C(\C)CC[C@@H](O)C(=O)[C@H]3[C@H](C(=O)[C@]24C(=O)N[C@@H](CC(C)C)[C@@H]4[C@@H]1C)[C@@H]1O[C@H]3c2c(O)c(O)c(O)c(C)c21,> 50
2,CC(C)C[C@@H]1NC(=O)[C@]23[C@H]1[C@H](C)C(CO)=C[C@@H]2[C@@H]1[C@@]2(CCC[C@@]1(C)O)CC[C@]3(O)O2,> 50
3,C=C1CC[C@@H](O)[C@]23CC[C@](O)(O2)[C@@]24C(=O)N[C@@H](CC(C)C)[C@@H]2[C@H](C)C(C)=C[C@@H]4[C@@H]13,> 50
4,CC1=C[C@@H]2/C=C(\C)CC[C@@H](O)C(=O)[C@H]3[C@H](C(=O)[C@]24C(=O)N[C@@H](CC(C)C)[C@@H]4[C@@H]1C)[C@@H]1O[C@H]3c2c(C)c(O)c(O)c(O)c21,> 50
5,COc1c(O)c(C)c2c(c1O)[C@@H]1O[C@H]2[C@H]2C(=O)[C@@]34C(=O)N[C@@H](CC(C)C)[C@@H]3[C@H](C)C(C)=C[C@@H]4/C=C(\C)CC[C@@H](O)C(=O)[C@@H]21,43.6
6,CC1=C[C@@H]2/C=C(\C)CC[C@@H](O)C(=O)[C@H]3[C@H](C(=O)[C@]24C(=O)N[C@@H](CC(C)C)[C@@H]4[C@@H]1C)[C@H]1O[C@@H]3c2c(O)c(O)c(O)c(C)c21,> 50

# Now those with a lower IC50, led by results:
row,IC50 [µM],SMILES
1,17.3,COc1c(O)c(C)c2c(c1O)[C@@H]1O[C@H]2[C@H]2C(=O)[C@H](O)CC/C(C)=C/[C@H]3C=C(C)[C@@H](C)[C@H]4[C@H](CC(C)C)NC(=O)[C@]43C(=O)[C@@H]21
2,13.3,COc1c(O)c(C)c2c(c1O)[C@H]1O[C@@H]2[C@H]2C(=O)[C@@]34C(=O)N[C@@H](CC(C)C)[C@@H]3[C@H](C)C(C)=C[C@@H]4/C=C(\C)CC[C@@H](O)C(=O)[C@@H]21
3,11.7,COc1c(O)c(C)c2c(c1O)[C@H]1O[C@@H]2[C@H]2C(=O)[C@H](O)CC/C(C)=C/[C@H]3C=C(C)[C@@H](C)[C@H]4[C@H](CC(C)C)NC(=O)[C@]43C(=O)[C@@H]21
4,0.2,Cc1ccccc1C(C(=O)NC1CCCCC1)N(C(=O)Cn1ccnc1C)c1cccc(F)c1 (stereo not given)

# Source: ChEMBL document CHEMBL4334517, “Flavipesines A and B and Asperchalasines E-H: Cytochalasans and Merocytochalasans from Aspergillus flavipes” (J Nat Prod, 2019)
